Values joined by “and” are separate entries in the source; they are usually repeats but may differ in a detail not shown here. Equal entries are not always repeated. “Also recorded” adds a separate entry of the source. Where two headings read alike, the source gives them in different places.
Key:
S. mansoni schistosomula = S. mansoni schistosomula high-throughput phenotype and motility screen (Roboworm), 72 h; type: cell-based, Schistosoma mansoni; details: for EC50: Schistosoma mansoni
Experimental: Cercariae derived from the NMRI ([…]) Puerto Rican strain (PR-1) of S. mansoni were shed from two Biomphalaria glabrata strains, the NMRI albino and pigmented outbred strains, under intensified lighting conditions (1 h of incubation at 26 °C). Cercariae were then mechanically transformed into schistosomula as previously described.
High-throughput screening (HTS) of selected compounds was conducted as previously described. Briefly, newly transformed schistosomula were distributed in a 384-well tissue culture plate (PerkinElmer, cat 6007460, seeding density of 120 parasites/well). Each compound (at a single concentration or two-fold titrations) was transferred into individual wells alongside the positive and negative controls (AUR at 10 μM final concentration in 0.625% DMSO and 0.625% DMSO, respectively). Schistosomula/compound co-cultures were then incubated at 37 °C for 72 h in a humidified atmosphere containing 5% CO2. Following the co-culture period, automatic assessment of compound-induced schistosomula motility and phenotypic changes were conducted with the high-content imaging platform Roboworm using the image analysis model previously described by Paveley et al..

S. mansoni adult worms = assay: S. mansoni adult worm motility screen (WormassayGP2), 72 h; type: cell-based, Schistosoma mansoni; details: for EC50: Schistosoma mansoni
Description: Mice (Mus musculus HsdOLa:TO - Tuck Ordinary; Envigo, UK) were used for the mammalian-specific propagation of the S. mansoni life cycle. Experimental animals were infected with 4000 or 180 S. mansoni cercariae/mouse and perfused three- or seven-weeks post-infection to obtain S. mansoni juvenile or adult worms, respectively. Preparation steps following perfusion have been described previously. Briefly, the parasite material was washed three times with pre-warmed adult worm media (DMEM (Gibco, Paisley, UK) supplemented with 10% (v/v) Fetal Calf Serum (FCS, Gibco, Paisley, UK), 1% (v/v) L-glutamine (Gibco, Paisley, UK) and an antibiotic mixture (150 Units/ml penicillin and 150 μg/ml streptomycin; Gibco, UK)) to remove residual host contamination and incubated in a humidified environment containing 5% CO2 at 37 °C for at least 1 h.
For the evaluation of anti-schistosomal activity on the adult stage of the parasite, 7-wk old worms were transferred into 48 well tissue culture plates (1–3 worm pairs/well, in duplicate). […] DMSO (0.5%) and praziquantel (10 μM in 0.5% DMSO) were also included as negative and positive control treatments. Treated adult worms were incubated for 72 h in a humidified environment containing 5% CO2 at 37 °C. Parasite motility after compound treatment was assessed by a digital image processing-based system (WormassayGP2), modified after Wormassay. Following compound-parasite co-incubation, eggs were collected, fixed in formalin (10% v/v formaldehyde) and enumerated aiming to collect further information on any compound-induced effects on parasite fecundity and IVLE production.

[1] = system: Adult S. haematobium worms; assay: In vitro screening of S. haematobium adults at 100 nM (WormAssay motility, descriptors, severity score); type: cell-based, Schistosoma haematobium
Experimental: (§1) For each species, parasite recovery involved reverse perfusion of the hepatic portal and mesenteric system using DMEM (Fisher Scientific). Parasites were washed six times with Basch 169 medium supplemented with 100 U/ml penicillin and 100 μg/ml streptomycin before manually distributing approximately 5 males per well (on occasion 1 or 2 females might also be present) of a 24-well plate (Corning Costar 3524). […] The next morning, a final concentration of 100 nM compound (in 1 μL DMSO) was added to each well and the final volume made up to 2 ml with Basch 169 medium supplemented with antibiotics and FBS. Each compound was tested in triplicate (except for some instances tested in duplicate). […] The phenotypic characterisation of compound effects focused on male worms due to the greater range of their motility characteristics that include flexing, bending, stretching, sucker walking and adherence, compared to the more sedentary female worms. In addition to descriptors, WormAssay, as adapted for the schistosome, was used to measure average worm motility per well [72, 73].

[2] = system: adult S. japonicum male worms; assay: In vitro screening of S. japonicum adults at 100 nM (WormAssay motility, descriptors, severity score); type: cell-based, Schistosoma japonicum; set-up: key to DESCRIPTORS 48 h / DESCRIPTORS 72 h: Dark = dark; S = Slow; S-uncoord = uncoordinated slow movements; O-uncoord = uncoordinated fast movements; On sides = male worms are not adhering to dish with ventral sucker; Shrunk = worms are not flexing and are smaller than usual; Teg damage = outer surface (tegument of the worm) is damaged; Deg= degenerating; D = Dead; details: for Effect on S. japonicum adult male worms: 5, 24, 48 and 72 h; for SEVERITY SCORES 5 h / SEVERITY SCORES 24 h / SEVERITY SCORES 48 h / SEVERITY SCORES 72 h: max = 4, one line per replicate
Experimental: as §1

[3] = 72 h, Table 1, 72 h, two dose response titrations (0.313–10 μM), 95% CI in brackets, read-out: Activity on schistosomula (EC50, μM - 72 h) Motility
[4] = 72 h, Table 1, 72 h, two dose response titrations (0.313–10 μM), 95% CI in brackets, read-out: Activity on schistosomula (EC50, μM - 72 h) Phenotype
[5] = 72 h, Table 1, mean of phenotype and motility EC50, 72 h, read-out: Activity on schistosomula (EC50, μM - 72 h) Average
[6] = 72 h, Table 2, average of phenotype and motility EC50, 72 h, read-out: Activity on schistosomula (EC50, μM - 72 h) Average
[7] = 72 h, Table 2, motility, 72 h, three replicate titrations (0.313–10 μM), read-out: Activity on schistosomula (EC50, μM - 72 h) M
[8] = 72 h, Table 2, phenotype, 72 h, three replicate titrations (0.313–10 μM), read-out: Activity on schistosomula (EC50, μM - 72 h) P
[9] = Table 4, Series A, read-out: Anti-schistosomal activity EC50 Schistosomula (μM) Motility
[10] = Table 4, Series A, read-out: Anti-schistosomal activity EC50 Schistosomula (μM) Phenotype
[11] = Table 4, Series A, read-out: Anti-schistosomal activity EC50 Adult (nM) Motility
[12] = Table 2, 72 h, titrations 0.0095–5 μM, WormassayGP2, read-out: Activity on adult worms (EC50, μM - 72 h) Motility
[13] = S. japonicum, one line per replicate

| Structure (SMILES) | Activity on schistosomula in the primary screen at 10 μM (S. mansoni schistosomula; 72 h) | EC50 (S. mansoni schistosomula; [3]) [µM] | EC50 (S. mansoni schistosomula; [4]) [µM] | EC50 (S. mansoni schistosomula; [5]) [µM] | Effect on adult worm motility at 12.5 and 6.25 μM (S. mansoni adult worms) | EC50 (S. mansoni schistosomula; [6]) [µM] | EC50 (S. mansoni schistosomula; [7]) [µM] | EC50 (S. mansoni schistosomula; [8]) [µM] | EC50 (S. mansoni schistosomula; [9]) [µM] | EC50 (S. mansoni schistosomula; [10]) [µM] | EC50 (S. mansoni adult worms; [11]) [nM] | EC50 (S. mansoni adult worms; [12]) [nM] | Effect on S. japonicum adult male worms [2] | SEVERITY SCORES 5 h ([2]; S. japonicum) | SEVERITY SCORES 24 h ([2]; S. japonicum, 24 h) | SEVERITY SCORES 48 h ([2]; S. japonicum) | SEVERITY SCORES 72 h ([2]; S. japonicum) | further results |
| --- | --- | --- | --- | --- | --- | --- | --- | --- | --- | --- | --- | --- | --- | --- | --- | --- | --- | --- |
| Cc1cccc(Nc2nc3ccc([N+](=O)[O-])cc3nc2Nc2cccc(C)c2)c1 [Compound 20] | retained activity | 1.23 | 1.62 | 1.42 | particularly active | – | – | – | – | – | – | – | – | – | – | – | – | – |
| FC(F)(F)c1cccc(Nc2nc3ccccc3nc2Nc2cccc(C(F)(F)F)c2)c1 [Compound 11] | retained activity | 1.12 | 1.38 | 1.25 | particularly active | – | – | – | – | – | – | – | – | – | – | – | – | Effect on adult worm motility at 3.15 μM (S. mansoni adult worms; 3.15 μM, lowest concentration tested): complete cessation of worm mobility |
| O=[N+]([O-])c1ccc2nc(Nc3ccc(C(F)(F)F)cc3)c(Nc3ccc(C(F)(F)F)cc3)nc2c1 [Compound 31, 6-nitro-N2, N3-bis(4-(trifluoromethyl)phenyl)quinoxaline-2,3-diamine] | – | – | – | – | – | 0.31 | 0.28 | 0.34 | 0.28 | 0.34 | 7.7 | 7.7 | essentially lethal | 0 | 0 | 4 | 4 | Onset time on S. haematobium [1]: ≤ 24 h; Effect on S. haematobium adult worms ([1]; 5, 24, 48 and 72 h): best activity; SEVERITY SCORES 5 h ([1]; S. haematobium, 5 h, max = 4, one line per replicate): 0; SEVERITY SCORES 24 h ([1]; S. haematobium, 24 h, max = 4, one line per replicate): 2; DESCRIPTORS 24 h ([1]; S. haematobium, 24 h, one line per replicate): S, on sides; also recorded: S, onsides; SEVERITY SCORES 48 h ([1]; S. haematobium, 48 h, max = 4, one line per replicate): 2; DESCRIPTORS 48 h ([1]; S. haematobium, 48 h, one line per replicate): S, on sides; also recorded: S, onsides; SEVERITY SCORES 72 h ([1]; S. haematobium, 72 h, max = 4, one line per replicate): 3; DESCRIPTORS 72 h ([1]; S. haematobium, 72 h, one line per replicate): S, dark on sides; Onset time on S. japonicum [2]: ≤ 24 h; DESCRIPTORS 24 h ([2]; S. japonicum, 24 h, one line per replicate): Dark, S, on sides; DESCRIPTORS 48 h [2, 13]: Dying, deg; DESCRIPTORS 72 h [2, 13]: Dying, D |
| O=[N+]([O-])c1ccc2nc(NCCc3ccccc3)c(NCCc3ccccc3)nc2c1 [Compound 37, 6-nitro-N2, N3-diphenethylquinoxaline-2,3-diamine] | – | – | – | – | – | 1.84 | 1.47 | 2.2 | – | – | – | 195 | – | – | – | – | – | EC50 (S. mansoni schistosomula; Table 3, read-out: Anti-schistosomal activity EC50 (μM) Schistosomula Motility): 1.47 µM; EC50 (S. mansoni schistosomula; Table 3, read-out: Anti-schistosomal activity EC50 (μM) Schistosomula Phenotype): 2.2 µM; EC50 (S. mansoni adult worms; Table 3, read-out: Anti-schistosomal activity EC50 (μM) Adult Motility): 195 nM |
| COc1ccc(Nc2nc3ccc([N+](=O)[O-])cc3nc2Nc2ccc(OC)c(C(F)(F)F)c2)cc1C(F)(F)F [Compound 35, N2, N3-bis(4-methoxy-3-(trifluoromethyl)phenyl)-6-nitroquinoxaline-2,3-diamine] | – | – | – | – | – | 0.66 | 0.69 | 0.63 | 0.69 | 0.63 | 44 | 44 | no appreciable activity | 0 | 0 | 0 | 0 | – |
| Cc1ccc(Nc2nc3ccccc3nc2Nc2ccc(C)c(C)c2)cc1C [Compound 16] | retained activity | 3.69 | 5.42 | 4.55 | particularly active | – | – | – | – | – | – | – | – | – | – | – | – | – |
| O=[N+]([O-])c1ccc2nc(Nc3ccc(Cl)cc3)c(Nc3ccc(Cl)cc3)nc2c1 [Compound 26, N^2, N^3-bis(4-chlorophenyl)-6-nitroquinoxaline-2,3-diamine] | – | – | – | – | – | 0.41 | 0.39 | 0.42 | 0.39 | 0.42 | 20.3 | 20.3 | decreased motility starting at 48 h | 0 | 0 | 1 | 2 and 1 | DESCRIPTORS 48 h [2, 13]: S; DESCRIPTORS 72 h [2, 13]: S, on sides and S |
| COC(=O)c1ccc(Nc2nc3ccc([N+](=O)[O-])cc3nc2Nc2ccc(C(=O)OC)cc2)cc1 [Compound 23] | retained activity | 1.44 | 1.23 | 1.33 | particularly active | – | – | – | – | – | – | – | – | – | – | – | – | – |
